Experimental data reported in PMC7530128 (Journal of the American Chemical Society, 2020).

T1: CblD (Homo sapiens, UniProt Q9H3L0)
T1 sequence (Q9H3L0 1-296): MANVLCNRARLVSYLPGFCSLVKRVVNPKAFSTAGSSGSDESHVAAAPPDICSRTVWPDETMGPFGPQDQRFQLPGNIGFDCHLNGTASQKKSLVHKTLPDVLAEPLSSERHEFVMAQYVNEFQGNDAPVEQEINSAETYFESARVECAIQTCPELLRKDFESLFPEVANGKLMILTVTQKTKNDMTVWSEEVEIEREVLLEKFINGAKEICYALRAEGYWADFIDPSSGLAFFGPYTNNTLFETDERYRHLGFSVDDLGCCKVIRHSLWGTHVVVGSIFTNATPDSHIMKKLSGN

T2: CblC (Homo sapiens, UniProt Q9Y4U1)
T2 chain: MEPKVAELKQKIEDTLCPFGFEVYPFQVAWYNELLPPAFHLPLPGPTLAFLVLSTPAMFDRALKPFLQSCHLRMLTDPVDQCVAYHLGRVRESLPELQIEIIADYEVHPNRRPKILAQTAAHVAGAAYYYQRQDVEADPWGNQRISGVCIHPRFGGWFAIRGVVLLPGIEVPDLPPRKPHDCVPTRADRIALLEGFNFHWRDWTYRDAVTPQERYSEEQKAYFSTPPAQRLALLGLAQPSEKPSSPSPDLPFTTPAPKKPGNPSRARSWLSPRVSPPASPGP


Columns and labels:
CblD = target: T1, CblD; test: UV-visible titration; format: binding
CblC = target: T2, CblC; test: ITC

Kd (CblC)	Molecule	Kd (CblD)
–	H2OCbl	1000 ± 400 nM
40 nM	CblD (protein, cobalamin) SDESHVAAAPPDICSRTVWPDETMGPFGPQDQRFQLPGNIGFDCHLNGTASQKKSLVHKTLPDVLAEPLSSERHEFVMAQYVNEFQGNDAPVEQEINSAETYFESARVECAIQTCPELLRKDFESLFPEVANGKLMILTVTQKTKNDMTVWSEEVEIEREVLLEKFINGAKEICYALRAEGYWADFIDPSSGLAFFGPYTNNTLFETDERYRHLGFSVDDLGCCKVIRHSLWGTHVVVGSIFTNATPDSHIMKKLSGN	–
